“Also recorded” adds a separate entry of the source.
Experiments:
[1] = Drying of selected materials under vacuum at 45° C., solid form checked by XRPD; assay type: physicochemical
Method: (§1) XRPD patterns were collected with a PANalytical X'Pert PRO MPD or Empyrean diffractometer using an incident beam of Cu radiation produced using an Optix long, fine-focus source. An elliptically graded multilayer mirror was used to focus Cu Ku X-ray radiation through the specimen and onto the detector. Prior to the analysis, a silicon specimen (NIST SRM 640e) was analyzed to verify the observed position of the Si (111) peak is consistent with the NIST-certified position. A specimen of the sample was sandwiched between 3-μm-thick films and analyzed in transmission geometry. A beam-stop, short antiscatter extension, and antiscatter knife-edge were used to minimize the background generated by air. Soller slits for the incident and diffracted beams were used to minimize broadening from axial divergence. Diffraction patterns were collected using a scanning position-sensitive detector (X'Celerator) located 240 mm from the specimen and Data Collector software v. 5.5.

[2] = Polymorph screen (evaporation, cooling, slurry, solvent/anti-solvent); assay type: physicochemical; conditions: EtOAc/HFIPA (36:64), stirred at 60° C. 1 d, FC to ice/water bath, FE w/N2 purge
Description: Solids of Compound I unless noted otherwise, was used as the starting material. Materials produced in the study were utilized for selected experiments.
Solutions of starting material were allowed to partially evaporate or evaporate to dryness at ambient or elevated temperature from open vials for fast evaporation (FE) or from vials covered with aluminum foil with pin holes for slow evaporation (SE). Prior to evaporation, solutions were filtered at ambient or elevated temperature using 0.2 μm nylon filters.
Solutions of starting material were prepared in specified solvents at elevated temperature using a hot plate for heating. These were typically hot-filtered through a 0.2 μm nylon filter into warm receiving vials. […]
XRPD patterns were collected with a PANalytical X'Pert PRO MPD or Empyrean diffractometer using an incident beam of Cu radiation produced using an Optix long, fine-focus source. […] Prior to the analysis, a silicon specimen (NIST SRM 640e) was analyzed to verify the observed position of the Si (111) peak is consistent with the NIST-certified position. A specimen of the sample was sandwiched between 3-μm-thick films and analyzed in transmission geometry. […]

[3] = Stable form and hydrate screen via slurry-trituration experiments; assay type: physicochemical; conditions: anh. EtOH, 55° C., 7 d, brown suspension
Method: Slurry triburation experiments target the stable forms, including stable solvates and hydrates.
The slurry-trituration experiments were conducted by stirring solids of Compound I in specified solvents and solvent mixtures at various temperatures for 7 days (elevated temperature) or 14-18 days (ambient and sub-ambient temperatures). A summary of experimental conditions and results is detailed in Table 13.
as §1

[4] = molecular target: T1, glucokinase (Homo sapiens, UniProt P35557); conditions: cited from earlier work
T1 sequence (P35557 1-465): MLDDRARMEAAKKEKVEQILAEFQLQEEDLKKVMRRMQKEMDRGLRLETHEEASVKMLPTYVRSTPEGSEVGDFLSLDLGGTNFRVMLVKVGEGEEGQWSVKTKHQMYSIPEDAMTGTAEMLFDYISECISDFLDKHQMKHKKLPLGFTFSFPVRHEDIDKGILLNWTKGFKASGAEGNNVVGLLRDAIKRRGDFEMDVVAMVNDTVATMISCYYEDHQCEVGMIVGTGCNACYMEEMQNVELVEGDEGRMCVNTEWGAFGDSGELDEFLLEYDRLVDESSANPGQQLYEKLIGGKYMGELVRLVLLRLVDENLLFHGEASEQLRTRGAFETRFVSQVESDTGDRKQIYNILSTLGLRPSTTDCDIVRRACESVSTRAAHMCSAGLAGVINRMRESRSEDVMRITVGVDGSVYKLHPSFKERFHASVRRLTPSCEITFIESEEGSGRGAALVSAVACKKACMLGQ

[5] = Competitive slurry experiment in acetone among Form A, Form D, Form B and Form E, XRPD; assay type: physicochemical; conditions: for XRPD Results after competitive slurry of Forms A, D, B, E: acetone pre-saturated with Form A, 7 d, solids analyzed wet
Description: At each condition, similar amounts of solids from the four forms/materials were slurried in pre-saturated solutions at the examined temperature conditions for 7 days; solids were then isolated and analyzed wet by XRPD.
as §1

For CCCO[C@H]1CC[C@H](N(C(=O)Nc2ncc(SCC(=O)O)s2)C2CCCCC2)CC1 [Compound I Form E + minor Form A, {2-[3-cyclohexyl-3-(trans-4-propoxy-cyclohexyl)-ureido]-thiazol-5-ylsulfanyl}-acetic acid], the “XRPD Results after drying” value ([1]; vacuum/45° C./1 d) was “Compound I Form B +”.
For CCCO[C@H]1CC[C@H](N(C(=O)Nc2ncc(SCC(=O)O)s2)C2CCCCC2)CC1 [Compound I Material G, {2-[3-cyclohexyl-3-(trans-4-propoxy-cyclohexyl)-ureido]-thiazol-5-ylsulfanyl}-acetic acid], the “XRPD Results after drying” value ([1]; vacuum/45° C./1 d) was “disordered”.
In the case of CCCO[C@H]1CC[C@H](N(C(=O)Nc2ncc(SCC(=O)O)s2)C2CCCCC2)CC1 [Compound I, {2-[3-cyclohexyl-3-(trans-4-propoxy-cyclohexyl)-ureido]-thiazol-5-ylsulfanyl}-acetic acid], the “XRPD Result after polymorph screen experiment” value [2] is given as “decomposed”, the “XRPD Result after slurry-trituration” value [3] is given as “decomposed” and the Glycemic control ([4]; oral, liver selective glucokinase activator) is given as “improves glycemic control”. The “Adverse effects (hypoglycemia, dyslipidemia/increased TG, liver glycogen and TG, loss of efficacy)” value ([4]; therapeutically relevant doses, compared with other GK activators) was “does not cause similar adversarial effects; also recorded: may not induce hypoglycemia, dyslipidemia, or pathological increases of glycogen and TG in the liver”.
In the case of CCCO[C@H]1CC[C@H](N(C(=O)Nc2ncc(SCC(=O)O)s2)C2CCCCC2)CC1 [Form A, {2-[3-cyclohexyl-3-(trans-4-propoxy-cyclohexyl)-ureido]-thiazol-5-ylsulfanyl}-acetic acid], the “XRPD Results after competitive slurry of Forms A, D, B, E” value (from here on “XRPD Results after competitive slurry”) ([5]; 2-8° C.) is reported as “Form A”, the “XRPD Results after competitive slurry” value ([5]; 45° C.) is reported as “Form A” and the “XRPD Results after competitive slurry” value ([5]; RT) is reported as “Form A”. For the same compound, the “Relative stability among anhydrous forms A, B, D, E” value ([5]; within 2-8° C. to 45° C., based on competitive slurries) was “likely the most stable form”.
For CCCO[C@H]1CC[C@H](N(C(=O)Nc2ncc(SCC(=O)O)s2)C2CCCCC2)CC1 [Form C, {2-[3-cyclohexyl-3-(trans-4-propoxy-cyclohexyl)-ureido]-thiazol-5-ylsulfanyl}-acetic acid], the “Solid form change upon drying / desolvation” value [1] was “desolvates into Form D”, the “XRPD Results after drying” value ([1]; vacuum/45° C./1 h) was “Compound I Form D” and the “XRPD Results after drying” value ([1]; vacuum/45° C./1 d, listed as Compound I Form C) was “Compound I Form D ±”.
With CCCO[C@H]1CC[C@H](N(C(=O)Nc2ncc(SCC(=O)O)s2)C2CCCCC2)CC1 [Form F, {2-[3-cyclohexyl-3-(trans-4-propoxy-cyclohexyl)-ureido]-thiazol-5-ylsulfanyl}-acetic acid] the “Solid form change upon drying / desolvation” value [1] was “converts to Form D upon drying” and the “XRPD Results after drying” value ([1]; vacuum/45° C./3 d, listed as Compound I Form F) was “Compound I Form D”.
In the case of CCCO[C@H]1CC[C@H](N(C(=O)Nc2ncc(SCC(=O)O)s2)C2CCCCC2)CC1 [Form G, {2-[3-cyclohexyl-3-(trans-4-propoxy-cyclohexyl)-ureido]-thiazol-5-ylsulfanyl}-acetic acid], the “Solid form change upon drying / desolvation” value [1] is reported as “become disordered upon drying” and the “XRPD Results after drying” value ([1]; vacuum/45° C./3 d, listed as Compound I Form G) is reported as “disordered”.
For CCCO[C@H]1CC[C@H](N(C(=O)Nc2ncc(SCC(=O)O)s2)C2CCCCC2)CC1 [Form H, {2-[3-cyclohexyl-3-(trans-4-propoxy-cyclohexyl)-ureido]-thiazol-5-ylsulfanyl}-acetic acid], the “Solid form change upon drying / desolvation” value [1] was “become disordered upon drying”.
In the case of CCCO[C@H]1CC[C@H](N(C(=O)Nc2ncc(SCC(=O)O)s2)C2CCCCC2)CC1 [Form I, {2-[3-cyclohexyl-3-(trans-4-propoxy-cyclohexyl)-ureido]-thiazol-5-ylsulfanyl}-acetic acid], the “Solid form change upon drying / desolvation” value [1] is reported as “converts to Form E or solids similar to Form E upon drying” and the “XRPD Results after drying” value ([1]; vacuum/45° C./1 d, listed as Compound I Form I) is reported as “Compound I Form B”.

From patent US12709603B2, “Crystalline forms of {2-[3-cyclohexyl-3-(trans-4-propoxy-cyclohexyl)-ureido]-thiazol-5-ylsulfanyl}-acetic acid and uses thereof” (vTv Therapeutics LLC, priority 2020, dated 2026)
